Assay results as given in patent US20090305271A1, “In Vitro Assay Based on Camp Levels Modulated by Gi-Coupled Receptors” (priority 2006, published 2009).

Columns and labels:
Format in all cases: cell-based
alpha 2c receptor = target: T1, alpha 2c receptor (Homo sapiens, UniProt P18825); test: cAMP assay with NKH477 or forskolin as activator, alpha 2c receptor stably expressed in CHO-S; details: alpha 2c in CHO-S, 1 μM of agonist (epinephrine)
T1 construct: expressed in transfected cells; host or cells: CHO-S
T1 sequence (P18825 1-462): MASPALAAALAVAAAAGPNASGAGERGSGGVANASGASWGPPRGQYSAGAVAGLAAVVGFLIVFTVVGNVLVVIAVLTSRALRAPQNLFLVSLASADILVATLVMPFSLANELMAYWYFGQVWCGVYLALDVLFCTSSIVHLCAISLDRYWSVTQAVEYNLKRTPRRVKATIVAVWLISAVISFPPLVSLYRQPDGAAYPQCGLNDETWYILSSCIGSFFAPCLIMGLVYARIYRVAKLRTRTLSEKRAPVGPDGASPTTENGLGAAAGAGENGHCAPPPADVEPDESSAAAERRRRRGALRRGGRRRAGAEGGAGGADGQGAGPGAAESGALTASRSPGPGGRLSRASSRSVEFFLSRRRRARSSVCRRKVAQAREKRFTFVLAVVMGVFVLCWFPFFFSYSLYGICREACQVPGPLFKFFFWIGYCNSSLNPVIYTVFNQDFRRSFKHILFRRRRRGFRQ
Experimental: (§1) To measure the production of cAMP from cells, cells were harvested and resuspended with HBSS Buffer. Varying concentrations of cells were plated in a 96-well plate. Serial dilutions of agonists (Dopamine or Epinephrine) were added and incubated for 10′ at room temperature with the cells. Forskolin or NKH477 were added, and the plate was incubated at 37° C. for 10 minutes. After cell induction, the assay reagents were added as outlined in the assay procedure.
For the alpha2c—CHO S cell line (alpha 2c stably transfected in CHO S host cell line) was incubate with 5 μM of NKH477 and Forskolin 10′ at 37° C. without or with 1 μM of Epinephrine
(§2) c) CHO-K1 cells expressing D4.4, alpha2c H3 and D2S receptors were exposed to increasing concentrations of ligands, respectively dopamine, epinephrine, histamine and dopamine ranging from 0.01 nM to 10 μM in the presence of 30 μM forskolin or 10 μM NKH-477.

[1] = target: T2, human dopamine D4.4 receptor (Homo sapiens, UniProt P21917); test: cAMP assay with NKH477 or forskolin as activator, D4.4 receptor stably expressed in CHO-K1; details: D4.4 in CHO-K1, 1 μM of agonist (dopamine)
T2 construct: expressed in transfected cells; host or cells: CHO-K1
T2 sequence (P21917 1-419): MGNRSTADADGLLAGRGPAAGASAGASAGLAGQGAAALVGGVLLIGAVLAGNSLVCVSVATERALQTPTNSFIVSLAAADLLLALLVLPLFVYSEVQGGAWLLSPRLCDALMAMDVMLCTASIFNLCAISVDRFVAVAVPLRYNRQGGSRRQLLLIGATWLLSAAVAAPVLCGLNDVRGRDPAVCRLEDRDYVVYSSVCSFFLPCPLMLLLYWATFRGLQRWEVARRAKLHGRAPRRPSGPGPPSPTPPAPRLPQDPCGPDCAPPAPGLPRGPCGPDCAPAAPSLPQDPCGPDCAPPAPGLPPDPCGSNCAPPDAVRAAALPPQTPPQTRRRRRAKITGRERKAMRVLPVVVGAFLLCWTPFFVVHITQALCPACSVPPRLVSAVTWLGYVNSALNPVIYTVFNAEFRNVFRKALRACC
Experimental: cAMP measurements on CHO-K1 cells that stably expressed the human muscarinic M4 or the human dopamine D4.4 receptor were performed via the HTRF (homogeneous time-resolved fluorescence) technology (CIS Bio, France). The principle of these cAMP assays is based on a competition between cAMP produced by cells and cAMP-XL665 conjugate for the binding with monoclonal anti-cAMP-cryptate conjugate. The HTRF) conjugates are prepared in lysis buffer so that the cell lysis and the detection step can be performed simultaneously.
as §1
For the D4—CHO K1 cell line (D4 stably transfected in CHO K1 host cell line) 0.7 μM of NKH477 and Forskolin were used with or without 1 μM of Dopamine
as §2

[2] = tested on: adenylyl cyclase isoform V and/or VI; test: cAMP production with NKH-477 instead of forskolin as in vitro activator of cAMP formation; details: cells expressing the adenylyl cyclase isoform V and/or VI
human muscarinic M4 = target: T3, human muscarinic M4 (Homo sapiens, UniProt P08173); test: cAMP HTRF functional assay, forskolin-induced cAMP production in M4/CHO/miRNA cell line
T3 construct: expressed in transfected cells; host or cells: CHO-K1 (M4/CHO and M4/CHO/miRNA cell lines)
T3 sequence (P08173 1-479): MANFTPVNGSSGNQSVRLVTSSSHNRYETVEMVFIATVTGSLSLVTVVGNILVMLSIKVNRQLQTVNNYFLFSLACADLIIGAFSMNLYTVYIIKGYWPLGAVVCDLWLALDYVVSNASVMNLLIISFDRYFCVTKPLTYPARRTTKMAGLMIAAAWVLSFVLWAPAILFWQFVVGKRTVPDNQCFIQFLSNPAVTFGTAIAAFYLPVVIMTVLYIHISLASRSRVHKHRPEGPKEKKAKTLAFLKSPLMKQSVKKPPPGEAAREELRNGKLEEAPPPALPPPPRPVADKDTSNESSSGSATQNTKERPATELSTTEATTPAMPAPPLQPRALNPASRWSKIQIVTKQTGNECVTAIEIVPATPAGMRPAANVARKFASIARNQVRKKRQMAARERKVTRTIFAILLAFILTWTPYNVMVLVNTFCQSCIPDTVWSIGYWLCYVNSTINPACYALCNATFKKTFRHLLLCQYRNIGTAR
Experimental: CHO-K1 stably expressing the human muscarinic M4 or the human dopamine D4.4 receptor were cultured under standard conditions. Cells were harvested by EDTA, washed once in phosphate buffered saline and resuspended in assay buffer (HBSS containing 0.1% glucose and 0.5 mM IBMX). The cells were dispensed into a black 96 half-well plate at a cell density of 10,000-15,000 cells. After incubation for 30 min at room temperature or at 37° C., an equal volume of assay buffer containing forskolin, then acetylcholine or quimpirole was added to the cells. After incubation for 30 min at room temperature or 37° C., cAMP detection was performed following the protocol described above. The plate was incubated for one more hour at room temperature and then measured on a RUBYstar^a (BMG Labtechnologies) time-resolved fluorescence reader. […]

SMILES	enhancement of cAMP production inhibition with NKH477 instead of forskolin (alpha 2c receptor)	signal window compared with Forskolin (alpha 2c receptor)	enhancement of cAMP production inhibition with NKH477 instead of forskolin [1]	signal window compared with Forskolin [1]	increase of the production of cAMP instead of forskolin [2]	inhibition at 1 µM (human muscarinic M4; 1 μM, M4/CHO/miRNA cell line, read-out: inhibition of Forskolin stimulated cAMP production)	increase of inhibitory potency on Forskolin induced cAMP production compared to wild CHO cells expressing M4 receptor (human muscarinic M4; M4/CHO/miRNA versus M4/CHO)
C=C[C@@]1(C)CC(=O)[C@]2(O)[C@@]3(C)[C@@H](O)CCC(C)(C)[C@@H]3[C@H](OC(=O)CCN(C)C)[C@H](OC(C)=O)[C@@]2(C)O1.Cl [NKH477, 6-(3-dimethylaminopropionyl) forskolin hydrochloride]	up to 20%	greater signal window than Forskolin	up to 20%	greater signal window than Forskolin	up to 20%	–	–
O=C1CCCN1CC#CCN1CCCC1 [Oxotremorine]	–	–	–	–	–	> 85%	25-30%
